Experimental data reported in PubChem BioAssay (NCI).
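48-hour exposure; five concentrations; linearly interpolated endpoints. TGI denotes the concentration required for complete inhibition of growth.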

Key:
Experiment in all cases: inhibition of tumour cell growth, NCI panel, 48 h
SK-OV-3 ovarian = test system: SK-OV-3 ovarian
SN12C renal = test system: SN12C renal
XF 498 CNS = test system: XF 498 CNS
MALME-3M melanoma = test system: MALME-3M melanoma
SF-539 CNS = test system: SF-539 CNS
M14 melanoma = test system: M14 melanoma
CAKI-1 renal = test system: CAKI-1 renal
SNB-75 CNS = test system: SNB-75 CNS
SF-295 CNS = test system: SF-295 CNS
DMS 273 small cell lung = test system: DMS 273 small cell lung
HOP-18 NSCLC = test system: HOP-18 NSCLC
A549 NSCLC = test system: A549 NSCLC
OVCAR-5 ovarian = test system: OVCAR-5 ovarian
LXFL 529 NSCLC = test system: LXFL 529 NSCLC
LOX IMVI melanoma = test system: LOX IMVI melanoma
CCRF-CEM leukemia = test system: CCRF-CEM leukemia
NCI-H226 lung = test system: NCI-H226 lung
UACC-257 melanoma = test system: UACC-257 melanoma
SNB-19 CNS = test system: SNB-19 CNS
M19-MEL melanoma = test system: M19-MEL melanoma
K-562 leukemia = test system: K-562 leukemia
HOP-62 NSCLC = test system: HOP-62 NSCLC
MOLT-4 leukemia = test system: MOLT-4 leukemia
786-0 renal = test system: 786-0 renal
KM12 colon = test system: KM12 colon
HT29 colon = test system: HT29 colon
SK-MEL-2 melanoma = test system: SK-MEL-2 melanoma
U251 CNS = test system: U251 CNS
DMS 114 small cell lung = test system: DMS 114 small cell lung
SK-MEL-28 melanoma = test system: SK-MEL-28 melanoma
IGROV1 ovarian = test system: IGROV1 ovarian
EKVX NSCLC = test system: EKVX NSCLC
OVCAR-8 ovarian = test system: OVCAR-8 ovarian
DLD-1 colon = test system: DLD-1 colon
TK-10 renal = test system: TK-10 renal
HL-60(TB) leukemia = test system: HL-60(TB) leukemia
SK-MEL-5 melanoma = test system: SK-MEL-5 melanoma
HCT-15 colon = test system: HCT-15 colon
SW-620 colon = test system: SW-620 colon
NCI-H23 lung = test system: NCI-H23 lung
HCC-2998 colon = test system: HCC-2998 colon
RPMI-8226 leukemia = test system: RPMI-8226 leukemia
SF-268 CNS = test system: SF-268 CNS
ACHN renal = test system: ACHN renal
RXF 393 renal = test system: RXF 393 renal
NCI-H522 lung = test system: NCI-H522 lung
KM20L2 colon = test system: KM20L2 colon
OVCAR-4 ovarian = test system: OVCAR-4 ovarian
COLO 205 colon = test system: COLO 205 colon
UACC-62 melanoma = test system: UACC-62 melanoma
NCI-H460 lung = test system: NCI-H460 lung
UO-31 renal = test system: UO-31 renal
OVCAR-3 ovarian = test system: OVCAR-3 ovarian
PC-3 prostate = test system: PC-3 prostate
SR leukemia = test system: SR leukemia
A498 renal = test system: A498 renal
MCF7 breast = test system: MCF7 breast
MDA-MB-435 = test system: MDA-MB-435
T-47D breast = test system: T-47D breast
HS 578T breast = test system: HS 578T breast
SNB-78 CNS = test system: SNB-78 CNS
MDA-MB-231 breast = test system: MDA-MB-231 breast
HOP-92 NSCLC = test system: HOP-92 NSCLC
MDA-N = test system: MDA-N
HCT-116 colon = test system: HCT-116 colon
DU-145 prostate = test system: DU-145 prostate

Compound: COC(=O)N/N=C(/CCC(=O)Nc1ccc(C)c(C)c1)CC(=O)C(C)(C)C
- TGI (SK-OV-3 ovarian): > 100 µM
- TGI (SN12C renal): > 100 µM
- TGI (XF 498 CNS): > 100 µM
- TGI (MALME-3M melanoma): > 100 µM
- TGI (SF-539 CNS): > 100 µM
- TGI (M14 melanoma): > 100 µM
- TGI (CAKI-1 renal): > 100 µM
- TGI (SNB-75 CNS): > 100 µM
- TGI (SF-295 CNS): > 100 µM
- TGI (DMS 273 small cell lung): > 100 µM
- TGI (HOP-18 NSCLC): > 100 µM
- TGI (A549 NSCLC): > 100 µM
- TGI (OVCAR-5 ovarian): > 100 µM
- TGI (LXFL 529 NSCLC): > 100 µM
- TGI (LOX IMVI melanoma): > 100 µM
- TGI (CCRF-CEM leukemia): > 100 µM
- TGI (NCI-H226 lung): > 100 µM
- TGI (UACC-257 melanoma): > 100 µM
- TGI (SNB-19 CNS): > 100 µM
- TGI (M19-MEL melanoma): > 100 µM
- TGI (K-562 leukemia): > 100 µM
- TGI (HOP-62 NSCLC): > 100 µM
- TGI (MOLT-4 leukemia): > 100 µM
- TGI (786-0 renal): > 100 µM
- TGI (KM12 colon): > 100 µM
- TGI (HT29 colon): > 100 µM
- TGI (SK-MEL-2 melanoma): > 100 µM
- TGI (U251 CNS): > 100 µM
- TGI (DMS 114 small cell lung): > 100 µM
- TGI (SK-MEL-28 melanoma): > 100 µM
- TGI (IGROV1 ovarian): > 100 µM
- TGI (EKVX NSCLC): > 100 µM
- TGI (OVCAR-8 ovarian): > 100 µM
- TGI (DLD-1 colon): > 100 µM
- TGI (TK-10 renal): > 100 µM
- TGI (HL-60(TB) leukemia): > 100 µM
- TGI (SK-MEL-5 melanoma): > 100 µM
- TGI (HCT-15 colon): > 100 µM
- TGI (SW-620 colon): > 100 µM
- TGI (NCI-H23 lung): > 100 µM
- TGI (HCC-2998 colon): > 100 µM
- TGI (RPMI-8226 leukemia): > 100 µM
- TGI (SF-268 CNS): > 100 µM
- TGI (ACHN renal): > 100 µM
- TGI (RXF 393 renal): > 100 µM
- TGI (NCI-H522 lung): > 100 µM
- TGI (KM20L2 colon): > 100 µM
- TGI (OVCAR-4 ovarian): > 100 µM
- TGI (COLO 205 colon): > 100 µM
- TGI (UACC-62 melanoma): > 100 µM
- TGI (NCI-H460 lung): > 100 µM
- TGI (UO-31 renal): > 100 µM
- TGI (OVCAR-3 ovarian): > 100 µM

Compound: CC1(C)C(=O)/C=C\C(=O)C(C)(C)C(=O)/C=C\C(=O)C(C)(C)C(=O)/C=C\C(=O)C(C)(C)C(=O)/C=C\C1=O
- TGI (SK-OV-3 ovarian): > 96.1 µM
- TGI (SN12C renal): 54.8 µM
- TGI (XF 498 CNS): 51.4 µM
- TGI (MALME-3M melanoma): 33.1 µM
- TGI (PC-3 prostate): > 100 µM
- TGI (SF-539 CNS): 55.8 µM
- TGI (SR leukemia): 27.8 µM
- TGI (M14 melanoma): 48.8 µM
- TGI (A498 renal): > 100 µM
- TGI (CAKI-1 renal): 31.2 µM
- TGI (MCF7 breast): > 100 µM
- TGI (SNB-75 CNS): 99.4 µM
- TGI (MDA-MB-435): > 100 µM
- TGI (SF-295 CNS): 54.5 µM
- TGI (DMS 273 small cell lung): 37.4 µM
- TGI (HOP-18 NSCLC): 40.6 µM
- TGI (T-47D breast): > 100 µM
- TGI (A549 NSCLC): > 100 µM
- TGI (OVCAR-5 ovarian): 69.7 µM
- TGI (LXFL 529 NSCLC): 21.3 µM
- TGI (LOX IMVI melanoma): > 53.8 µM
- TGI (CCRF-CEM leukemia): 23.4 µM
- TGI (HS 578T breast): > 100 µM
- TGI (NCI-H226 lung): > 86.5 µM
- TGI (UACC-257 melanoma): 63.9 µM
- TGI (SNB-19 CNS): > 71.1 µM
- TGI (M19-MEL melanoma): 40.6 µM
- TGI (K-562 leukemia): 39.4 µM
- TGI (HOP-62 NSCLC): > 100 µM
- TGI (MOLT-4 leukemia): 26.7 µM
- TGI (786-0 renal): 49.1 µM
- TGI (KM12 colon): > 72.8 µM
- TGI (HT29 colon): 37.3 µM
- TGI (SK-MEL-2 melanoma): 47.5 µM
- TGI (SNB-78 CNS): 50 µM
- TGI (U251 CNS): 64.3 µM
- TGI (SK-MEL-28 melanoma): > 58 µM
- TGI (IGROV1 ovarian): 56.5 µM
- TGI (EKVX NSCLC): 69.6 µM
- TGI (MDA-MB-231 breast): > 100 µM
- TGI (OVCAR-8 ovarian): 74.5 µM
- TGI (DLD-1 colon): 30.1 µM
- TGI (TK-10 renal): > 68.6 µM
- TGI (HL-60(TB) leukemia): 10.4 µM
- TGI (SK-MEL-5 melanoma): 56.2 µM
- TGI (HCT-15 colon): 61.5 µM
- TGI (SW-620 colon): 28.1 µM
- TGI (HOP-92 NSCLC): 29.1 µM
- TGI (MDA-N): > 100 µM
- TGI (HCT-116 colon): 30.8 µM
- TGI (NCI-H23 lung): 51.6 µM
- TGI (RPMI-8226 leukemia): 24.2 µM
- TGI (SF-268 CNS): > 69.3 µM
- TGI (ACHN renal): > 63.2 µM
- TGI (RXF 393 renal): 34.1 µM
- TGI (NCI-H522 lung): 20.2 µM
- TGI (KM20L2 colon): 83.2 µM
- TGI (OVCAR-4 ovarian): 53.1 µM
- TGI (COLO 205 colon): 33.2 µM
- TGI (UACC-62 melanoma): 56.3 µM
- TGI (NCI-H460 lung): > 100 µM
- TGI (UO-31 renal): 56 µM
- TGI (DU-145 prostate): > 100 µM
- TGI (OVCAR-3 ovarian): 48.7 µM

Compound: O=S(=O)(c1ccccc1)n1cc(C[P+](c2ccccc2)(c2ccccc2)c2ccccc2)c2ccccc21
- TGI (SK-OV-3 ovarian): 7.86 µM
- TGI (SN12C renal): 19.8 µM
- TGI (XF 498 CNS): 12.1 µM
- TGI (MALME-3M melanoma): 14.7 µM
- TGI (SF-539 CNS): 16.8 µM
- TGI (SR leukemia): 31.6 µM
- TGI (M14 melanoma): 7.04 µM
- TGI (A498 renal): 30 µM
- TGI (CAKI-1 renal): 26.9 µM
- TGI (SNB-75 CNS): 12.6 µM
- TGI (SF-295 CNS): 24.3 µM
- TGI (DMS 273 small cell lung): 10.2 µM
- TGI (A549 NSCLC): 24.8 µM
- TGI (OVCAR-5 ovarian): 32.2 µM
- TGI (LXFL 529 NSCLC): 8.26 µM
- TGI (LOX IMVI melanoma): 13.6 µM
- TGI (CCRF-CEM leukemia): 12.8 µM
- TGI (NCI-H226 lung): 18.1 µM
- TGI (SNB-19 CNS): 6.77 µM
- TGI (M19-MEL melanoma): 15.9 µM
- TGI (K-562 leukemia): 14.2 µM
- TGI (HOP-62 NSCLC): 12.6 µM
- TGI (MOLT-4 leukemia): 23.6 µM
- TGI (786-0 renal): 16.3 µM
- TGI (KM12 colon): 13.1 µM
- TGI (HT29 colon): 13.4 µM
- TGI (SK-MEL-2 melanoma): 5.87 µM
- TGI (SNB-78 CNS): 20.7 µM
- TGI (U251 CNS): 15.8 µM
- TGI (DMS 114 small cell lung): 14.4 µM
- TGI (SK-MEL-28 melanoma): 14.2 µM
- TGI (IGROV1 ovarian): 16 µM
- TGI (EKVX NSCLC): 15.8 µM
- TGI (OVCAR-8 ovarian): 12.6 µM
- TGI (DLD-1 colon): 11 µM
- TGI (TK-10 renal): 16.9 µM
- TGI (HL-60(TB) leukemia): 6.84 µM
- TGI (SK-MEL-5 melanoma): 3.29 µM
- TGI (HCT-15 colon): 30.5 µM
- TGI (SW-620 colon): 17.1 µM
- TGI (HOP-92 NSCLC): 5.53 µM
- TGI (HCT-116 colon): 15.2 µM
- TGI (NCI-H23 lung): 17.8 µM
- TGI (HCC-2998 colon): 15.7 µM
- TGI (RPMI-8226 leukemia): 18.8 µM
- TGI (SF-268 CNS): 18.6 µM
- TGI (ACHN renal): 28.7 µM
- TGI (RXF 393 renal): 20.3 µM
- TGI (NCI-H522 lung): 11.3 µM
- TGI (KM20L2 colon): 16.6 µM
- TGI (OVCAR-4 ovarian): 22 µM
- TGI (COLO 205 colon): 4.78 µM
- TGI (UACC-62 melanoma): 17.8 µM
- TGI (NCI-H460 lung): 15.3 µM
- TGI (UO-31 renal): 13.1 µM
- TGI (OVCAR-3 ovarian): 13.5 µM
